Test results as given in patent US20150010474A1, “Compounds And Methods For Selective Imaging And/Or Ablation” (Auckland Uniservices Limited, priority 2011, published 2015).

Tests used:
[1] = test system: HCT116 wild type (WT) cancer cells; experiment: Inhibition of cell proliferation, low cell density IC50 assay; assay type: cell-based; conditions: Homo sapiens, HCT-116; 4 hour drug exposure, washing and regrowth for 5 days
Description: IC50 values were determined as the concentration of prodrug required to inhibit cell growth by 50% of untreated controls following 4 hour drug exposure, with washing and regrowth for 5 days. WT:NfsA ratios were determined as the WT IC50/NfsA IC50.

[2] = test system: HCT-116 cells stably over-expressing cytochrome P450 reductase (CYPOR); experiment: Flow cytometry of metabolism and binding (EF5 antibody); assay type: cell-based, human; conditions: 2 h
Description: FIG. 4 illustrates the results of a second independent flow cytometry analysis of compound 15 and 93 metabolism and binding in wild-type HCT-116 cells, HCT-116 cells stably over-expressing cytochrome P450 reductase (CYPOR), a human one-electron reductase known to metabolise nitroheterocyclic and nitroaromatic compounds, or HCT-116 cells stably expressing the bacterial nitroreductase E. coli NfsA. 1×10^6HCT-116 cells were seeded in 6 well plates underaerobic conditions (21% O2, 5% CO2). After 2 h incubation, drug free control (wild-type HCT-116, foreground), 20 μM (wild-type HCT-116, second plot), 100 μM (wild-type HCT-116, third plot), 20 μM (HCT-116-CYPOR, forth plot), 100 μM (HCT-116-CYPOR, fifth plot) or 20 μM (HCT-116-NfsA, sixth plot) of compound 15 or 93 was added. After 2 h incubation cells were harvested and fixed with paraformaldehyde before being incubated overnight with 100 μl of 75 μg/ml EF5 CY5 conjugated antibody. Samples were then analysed on a Becton Dickinson FACscan flow cytometer.
FIG. 5 illustrates the results of flow cytometry analysis of HCT-116 cells stably over-expressing cytochrome P450 reductase (CYPOR), a human one-electron reductase known to metabolise nitroheterocyclic and nitroaromatic compounds. 1×10^6HCT-116-CYPOR cells were seeded in 6 well plates in aerobic, anoxic and 0.2% oxygen conditions designed to replicate the lower limit of pathological hypoxia observed in human tumours. After 2 h incubation, drug free control (foreground), 20 μM (middle) or 100 μM (background) of compound 15 or 67 was added. After 2 h incubation cells were harvested and fixed with paraformaldehyde before being incubated overnight with 100 μl of 75 μg/ml EF5 CY5 conjugated antibody. Samples were then analysed on a Becton Dickinson FAC scan flow cytometer.
FIG. 6 illustrates the results of flow cytometry analysis of compound 15 and 93 metabolism and binding in wild-type HCT-116 cells and HCT-116 cells stably over-expressing cytochrome P450 reductase (CYPOR), a human one-electron reductase known to metabolise nitroheterocyclic and nitroaromatic compounds. 1×10^6 HCT-116 cells were seeded in 6 well plates underanoxic conditions. After 2 h incubation, drug free control (wild-type HCT-116, foreground), 20 μM (wild-type HCT-116, second plot), 100 μM (wild-type HCT-116, third plot), 20 μM (HCT-116-CYPOR, forth plot) or 100 μM (HCT-116-CYPOR, fifth plot) of compound 15 or 93 was added. After 2 h incubation cells were harvested and fixed with paraformaldehyde before being incubated overnight with 100 μl of 75 μg/ml EF5 CY5 conjugated antibody. Samples were then analysed on a Becton Dickinson FACscan flow cytometer.

[3] = test system: human solid tumour xenograft NCI-H1299 (WT); experiment: Hypoxia-dependent binding by ex vivo flow cytometry with pimonidazole co-staining; assay type: in vivo, NIH-III nude mice; conditions: 60 mg/kg i.p.; tumours excised after 120 minutes, single cell suspension
Description: FIG. 11 illustrates the absence of hypoxic-dependent binding of compound 67 and compound 93 by flow cytometry in the human solid tumour xenograft NCI-H1299, with reference to hypoxia staining by compound 15 and pimonidazole (Hypoxyprobe™) as internal standards (positive controls). NCI-H1299 WT tumours were inoculated subcutaneously onto the flank of NIH-III nude mice. When the mixed tumours reached approximately 800 mm^3, mice were dosed i.p. with 60 mg/kg of pimonidazole, and 60 minutes later dosed with either 60 mg/kg of compound 15, or 60 mg/kg of compound 67, or 60 mg/kg of compound 93. After 120 minutes the tumours were excised and enzyme digested to form a single cell suspension before fixation in ice cold 80% ethanol. Single cell immunodetection of bound adducts of compounds was performed using a monoclonal antibody (Mab1, hybridoma clone 4.3.11.3) conjugated to Alexa-488 (Ex/Em 499/519; green) for the detection of pimonidazole adducts, and monoclonal antibody ELK3-51 directly conjugated to the fluorophore CY5 (Ex/Em 650/670 nm; red) for detection of adducts formed by compound 15 or compound 67 or compound 93. The ex-vivo tumour cell samples were analysed on a Becton Dickinson FACscan flow cytometer using FACS Diva software. Integrated fluorescence measurements were recorded for 10,000 single non-debris events. Fluorescence emission was monitored at 530 nm±20 and 670-700 nm for detection of Alexa-488 and CY5 conjugated monoclonal antibodies, respectively.

[4] = test system: human lung tumour xenograft NCI-H1299 harbouring approximately 5% NfsA-positive cells; experiment: In vivo binding by immunohistochemistry in mixed NfsA/WT xenograft; set-up: species or system NIH-III nude mice; conditions: 60 mg/kg i.p., tumours excised after 60 minutes; ELK3-51-CY5 antibody
Description: FIG. 8 illustrates the in vivo binding of compounds 15, 93 and 67 in the human lung tumour xenograft NCI-H1299 harbouring approximately 5% NfsA-positive cells. […] Mixed NfsA/WT NCI-H1299 cells were inoculated subcutaneously onto the flank of NIH-III nude mice. When the mixed tumours reached approximately 500 mm^3, mice were dosed i.p. with 60 mg/kg of either compound 15, compound 93 or compound 67. After 60 minutes the tumours were excised, and fixed in formalin before being embedded in paraffin wax. Tumour section were cut (5 microns) and mounted onto glass slides for immunodetection of bound adducts of compound 15, compound 93 or compound 67 using the monoclonal antibody ELK3-51 directly conjugated to the fluorophore CY5 (Ex/Em 650/670 nm). Fluorescent microscopy was employed to visualise the presence of cellular adducts of each test compound present in individual tumour cells. Image gain was reduced due to intense fluorescent signal indicating extensive adduct binding. Images were acquired on a Zeiss LSM 710 confocal microscope (×20 magnification).

Structure (SMILES)	IC50 [1] [mM]	Metabolism and binding by FACS, HCT-116-CYPOR cells, 0.2% oxygen (FIG. 5) ([2]; 20 μM or 100 μM, 0.2% oxygen)	Metabolism and binding by FACS, HCT-116-CYPOR cells, aerobic (FIG. 5) ([2]; 20 μM or 100 μM, aerobic)	Hypoxia-dependent binding in NCI-H1299 WT tumours, flow cytometry (FIG. 11) [3]	Detection of NfsA expressing cells after in vivo binding (FIG. 8) [4]	Metabolism and binding by FACS, HCT-116-CYPOR cells (FIG. 4) ([2]; 20 μM and 100 μM, aerobic conditions)	Metabolism and binding by FACS, HCT-116-CYPOR cells, anoxia (FIG. 6) ([2]; 20 μM and 100 μM, anoxic conditions)
Cc1ncc([N+](=O)[O-])n1CC(=O)NCC(F)(F)C(F)(F)F [Compound 67, 2-(2-methyl-5-nitro-1H-imidazol-1-yl)-N-(2,2,3,3,3-pentafluoropropyl)acetamide]	6.31	negligible metabolism and binding	negligible metabolism and binding	unable to bind to and thus detect pimonidazole-positive (hypoxic) tumour cells	readily detected by immunohistochemistry with single cell resolution	–	–
O=C(Cn1cnc([N+](=O)[O-])c1)NCC(F)(F)C(F)(F)F [Compound 93, 2-(4-nitro-1H-imidazol-1-yl)-N-(2,2,3,3,3-pentafluoropropyl)acetamide]	1.45	–	–	unable to bind to and thus detect pimonidazole-positive (hypoxic) tumour cells	readily detected by immunohistochemistry with single cell resolution	minimal metabolism and binding	negligible metabolism and binding
